In one experiment the target is T1, CYP26A1 (Homo sapiens, UniProt O43174).
T1 construct: expressed in transfected cells; host or cells: HeLa (stably transfected, hygromycin selection)
T1 sequence (O43174 1-497): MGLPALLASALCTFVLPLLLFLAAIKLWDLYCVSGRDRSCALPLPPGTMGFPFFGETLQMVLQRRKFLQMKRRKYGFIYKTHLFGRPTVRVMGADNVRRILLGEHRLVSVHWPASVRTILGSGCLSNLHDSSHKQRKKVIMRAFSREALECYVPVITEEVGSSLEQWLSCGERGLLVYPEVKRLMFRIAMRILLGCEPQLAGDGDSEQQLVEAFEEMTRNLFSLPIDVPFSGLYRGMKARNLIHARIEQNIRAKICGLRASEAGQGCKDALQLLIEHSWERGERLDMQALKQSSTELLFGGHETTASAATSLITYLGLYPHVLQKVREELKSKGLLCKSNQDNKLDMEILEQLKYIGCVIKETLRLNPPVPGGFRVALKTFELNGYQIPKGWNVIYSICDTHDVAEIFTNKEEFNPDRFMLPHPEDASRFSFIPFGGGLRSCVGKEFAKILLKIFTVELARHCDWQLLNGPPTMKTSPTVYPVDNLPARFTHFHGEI
Nature of the experiment: HeLa cell-based inhibitor assay (HeLa-CYP26A1), inhibition of all trans-RA metabolism. To be noted: CYP26A1 cells, highest concentration tested (10 µM), Figure 2, read-out: percentage inhibition. On the procedure:
(§1) CYP26A1 or CYP26B1 cDNA stably transfected HeLa cells were maintained in Minimum Essential Medium (MEM) containing 10% fetal bovine serum (FBS), 1X antibiotic/antimycotic cocktail, and […] hygromycin. Exponentially growing cells were harvested by incubation in trypsin. Cells were then collected and re-plated in 48-well culture plates at 1.5×10^5 (CYP26A1) or 1.5×10^4 (CYP26B1) cells in 0.2 mL of culture medium containing 0.04µCi [^3H]-RA (retinoic acid) in the presence or absence of increasing concentrations of a test compound. The test compound was diluted in dimethyl sulfoxide (DMSO) and then added in duplicate to wells to 0.01 nM, 0.1 nM, 1 nM, 10 nM, 100 nM, 1 µM, and 10 µM final concentrations. Cells were incubated for 3 hours at 37 °C. Retinoids were then extracted using the procedure of Bligh, et al., (1959), Canadian Journal of Biochemistry 37, 911-917, which was modified by using dichloromethane instead of chloroform. Each sample's water-soluble radioactivity level was quantified using a β-scintillation counter (using Ecolume scintillation fluid, available from MP Biomedicals of Solon, OH, USA). IC50 values represented the concentration of inhibitor required to inhibit all trans-RA metabolism by 50%, and were derived from log transformed data.

A further experiment concerns the target T2, CYP26B1 (Homo sapiens, UniProt Q9NR63).
T2 sequence (Q9NR63 1-512): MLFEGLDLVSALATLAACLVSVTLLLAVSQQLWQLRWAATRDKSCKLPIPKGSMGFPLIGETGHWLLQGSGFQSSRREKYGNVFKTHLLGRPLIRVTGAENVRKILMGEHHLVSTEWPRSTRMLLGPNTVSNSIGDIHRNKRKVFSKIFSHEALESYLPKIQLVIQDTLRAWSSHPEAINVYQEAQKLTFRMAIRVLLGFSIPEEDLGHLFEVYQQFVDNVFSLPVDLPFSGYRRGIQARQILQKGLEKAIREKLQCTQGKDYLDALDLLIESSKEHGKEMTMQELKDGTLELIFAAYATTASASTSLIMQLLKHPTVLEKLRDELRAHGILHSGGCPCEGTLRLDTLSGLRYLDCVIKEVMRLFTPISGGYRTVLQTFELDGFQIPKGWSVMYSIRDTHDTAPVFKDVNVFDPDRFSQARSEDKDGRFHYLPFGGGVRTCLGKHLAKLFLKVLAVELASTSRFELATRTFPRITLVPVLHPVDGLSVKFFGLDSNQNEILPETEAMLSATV
Nature of the experiment: HeLa cell-based inhibitor assay (HeLa-CYP26B1), inhibition of all trans-RA metabolism. The settings on record: CYP26B1 cells; [3H]-RA, 3 hours at 37 °C; Figure 1. On the procedure:
as §1

`CC(C)(C)c1cccc(-c2cc3cc(/C=C/C(=O)O)ccc3[nH]2)c1` [Compound 1, (E)-3-(2-(3-(tert-butyl)phenyl)-1H-indol-5-yl)acrylic acid]: the inhibition at 10 µM at CYP26A1 was found to be 33%. Moreover, half-maximal inhibition on CYP26B1 (IC50) required 12.7 nM.

The values above are taken from patent publication EP4470536A1, “COMPOUND FOR USE IN TREATING FIBRODYSPLASIA OSSIFICANS PROGRESSIVA (FOP)” (Queen's University At Kingston, priority 2023, dated 2024).
